Key:
[1] = tested on: human pulmonary microvascular endothelial cells (HPMECs); test: FITC dextran permeability assay in HPMEC monolayer; type: cell-based; details: FITC-conjugated dextran
Excerpt: Cultured endothelial cells are used to model the microvascular endothelium, because of the feasibility of performing complex molecular or pharmacological experiments to study cellular signalling pathways related to barrier function and integrity. In addition, the lung is the organ most often affected by sepsis induced-MODS. To determine the functional significance of G9a inhibition in human cells, solute permeability and electrical resistance across a confluent human pulmonary microvascular endothelial cell (HPMEC) monolayer was assessed. For both experiments HPMECs were seeded on 0.4 μm-pore polyester transwells (Costar) coated with Attachment Factor (Invitrogen), grown to confluency, and then […] with either UNC0462 or vehicle control.
FITC fluorescence was be measured at different time intervals in samples taken from the bottom compartment as a measure of paracellular dextran leak.

[2] = biological target: T1, active human EHMT2/G9a protein fragment (Homo sapiens, UniProt Q96KQ7); test: G9a inhibitor in vitro histone methyltransferase assay; type: biochemical
T1 construct: active human EHMT2/G9a protein fragment (ab80323); purchased ab80323
T1 sequence (Q96KQ7 785-1210 limits assumed): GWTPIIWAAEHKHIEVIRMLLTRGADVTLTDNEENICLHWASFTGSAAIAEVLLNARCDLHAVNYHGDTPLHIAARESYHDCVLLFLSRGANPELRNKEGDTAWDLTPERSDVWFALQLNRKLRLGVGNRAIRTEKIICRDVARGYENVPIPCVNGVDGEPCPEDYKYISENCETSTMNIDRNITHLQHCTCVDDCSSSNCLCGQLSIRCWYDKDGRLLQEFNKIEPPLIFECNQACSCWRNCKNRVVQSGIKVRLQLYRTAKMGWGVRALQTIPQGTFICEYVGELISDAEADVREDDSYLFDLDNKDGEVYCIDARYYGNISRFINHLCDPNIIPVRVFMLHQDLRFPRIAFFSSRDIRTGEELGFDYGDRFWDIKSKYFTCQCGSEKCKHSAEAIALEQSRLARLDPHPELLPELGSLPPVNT
Excerpt: The commercially available Histone H3 (K9) Methyltransferase Activity Quantification Assay Kit (ab113453) was used for this assay and a modified protocol was adopted. Briefly, the histone substrate is stably captured on the strip wells. Uninhibited G9a methyltransferase (active human EHMT2/G9a protein fragment (ab80323)) will transfer a methyl group to histone H3 substrate from Adomet to methylate the substrate at lysine 9. The methylated histone H3K9 can be recognized with a high-affinity antibody. The ratio or amount of methylated H3K9, which is directly proportional to enzyme activity, can be quantified through HRP-conjugated secondary antibody color development system. In the presence of inhibitors of G9a methyltransferase, this reaction will be inhibited. […] The color should change to yellow and absorbance can be read on a microplate reader at 450 nm within 2-15 minutes.
G9a activity or inhibition was calculated as follows: plot OD value versus amount of G9a Standard and determine the slope. […]

[3] = tested on: human umbilical vein endothelial cells (HUVECs); test: FITC dextran leakage assay in HUVEC monolayer; type: cell-based; details: HUVEC on transwell, LPS 1 μg/ml + UNC0642 2.5 nM
Method: To determine the functional significance of G9a inhibition in human cells, solute permeability and electrical resistance across a confluent HUVEC monolayer was assessed. For both experiments, HUVEC were seeded at 1×10^6 cells/ml on Matrigel™ coated 3-μm pore size transwell inserts in 24-well plates from BD Discovery Labware™ (catalog number 354575) and grown to confluency. The cells were then treated with either the vehicle, LPS (1 μg/ml) or LPS (1 μg/ml)+UNC0642 (2.5 nM).
Assessment of Paracellular Permeability: Dextran sulfate-FITC (3 kD, Invitrogen™ Molecular Probes catalog number D-3306) was added to the lower chamber to a final concentration of 10 μg/ml. Simultaneously, the different treatment conditions mentioned above were added to the lower chamber. FITC fluorescence was measured at different time intervals (0 h, 1.5 h, 2.5 h, 24 h) in samples taken from the top chamber as a measure of paracellular dextran leak. […] (FIG. 11, Panel A)

COc1cc2c(NC3CCN(C(C)C)CC3)nc(N3CCC(F)(F)CC3)nc2cc1OCCCN1CCCC1 [UNC0642, 2-(4,4-Difluoropiperidin-1-yl)-6-methoxy-N-[1-(propan-2-yl)piperidin-4-yl]-7-(3-(pyrrolidin-1-yl)propoxy]quinazolin-4-amine]
LPS-induced endothelial barrier dysfunction (increased dextran leakage) [1]: significantly mitigate | G9a methyltransferase activity [2]: inhibits G9a methyltransferase activity in a dose dependent manner | LPS induced vessel permeability (FITC dextran leakage) [3]: protects against LPS induced vessel permeability

From patent publication US11998549B2, “Methods of treating a vascular leakage-associated disease or disorder” (UNITY HEALTH TORONTO, priority 2019, dated 2024)
